One experiment deals with T1, KRAS G12D (Homo sapiens, UniProt P01116, G12D).
T1 construct: made in house; host or cells: E. coli, e.g. BL21 (DE3)
In words: HTRF assay, KRAS G12D interaction with SOS1. The class given is biochemical. The following applies: bins <500 nM / 500 nM to 1000 nM, read-out: Inhibition of KRAS G12D (IC50).

The next experiment concerns MiaPaca2 cells. The experiment can be described thus: Ras cellular assay, growth of cells with K-Ras G12C mutation. The class given is cell-based. The following applies: Homo sapiens, MIA PaCa-2; cell proliferation assay; bins ≤500 nM / >500 nM; read-out: Inhibition of MiaPaca2 Cells (IC50). In outline: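 MIA PaCa-2 cells (K-Ras G12C, about 125-150 cells/well) grown in 0.25% soft agar over a 0.6% agar base, compound added on day 2 at 0.3% final DMSO. Growth read on day 10 by Cell Titer 96 AQueous absorbance (490 nm, reference 660 nm) against time-zero wells; IC50 from four-parameter fit.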

A further experiment deals with T2, KRAS G12V (Homo sapiens, UniProt P01116, G12V).
T2 construct: made in house; host or cells: E. coli, e.g. BL21 (DE3)
T2 sequence (P01116 1-188 isoform P01116-2 G12V): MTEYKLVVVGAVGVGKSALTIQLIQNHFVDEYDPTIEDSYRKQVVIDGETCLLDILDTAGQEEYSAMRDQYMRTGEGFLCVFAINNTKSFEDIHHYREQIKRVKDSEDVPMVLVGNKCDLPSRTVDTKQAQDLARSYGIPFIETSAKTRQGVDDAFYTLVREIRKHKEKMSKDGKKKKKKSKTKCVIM
In words: HTRF assay, KRAS G12V interaction with SOS1. Type of experiment: biochemical. The following applies: bins <500 nM / 500 nM to 1000 nM, read-out: Inhibition of KRAS G12V (IC50).

The target of another experiment is T3, KRAS G12S (Homo sapiens, UniProt P01116, G12S).
T3 construct: made in house; host or cells: E. coli, e.g. BL21 (DE3)
T3 sequence (P01116 1-188 isoform P01116-2 G12S): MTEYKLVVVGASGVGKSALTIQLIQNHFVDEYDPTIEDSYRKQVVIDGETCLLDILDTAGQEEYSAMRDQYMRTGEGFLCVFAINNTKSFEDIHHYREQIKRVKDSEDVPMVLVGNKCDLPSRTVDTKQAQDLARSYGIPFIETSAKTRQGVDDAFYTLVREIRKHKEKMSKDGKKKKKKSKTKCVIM
In words: HTRF assay, KRAS G12S interaction with SOS1. Type of experiment: biochemical. The following applies: bins <500 nM / 500 nM to 1000 nM, read-out: Inhibition of KRAS G12S (IC50).

The target in a further experiment is T4, KRAS WT (Homo sapiens, UniProt P01116).
T4 construct: made in house; host or cells: E. coli, e.g. BL21 (DE3)
T4 sequence (P01116 1-188 isoform P01116-2): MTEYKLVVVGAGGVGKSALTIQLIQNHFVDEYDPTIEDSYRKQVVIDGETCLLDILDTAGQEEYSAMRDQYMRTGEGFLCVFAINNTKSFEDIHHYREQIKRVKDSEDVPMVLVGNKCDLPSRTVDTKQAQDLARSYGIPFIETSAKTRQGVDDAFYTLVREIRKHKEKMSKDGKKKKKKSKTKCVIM
The experiment can be described thus: HTRF assay, wildtype KRAS interaction with SOS1. Type of experiment: biochemical. The following applies: bins <500 nM / 500 nM to 1000 nM, read-out: Inhibition of KRAS WT (IC50).

T1 sequence (P01116 1-188 isoform P01116-2 G12D): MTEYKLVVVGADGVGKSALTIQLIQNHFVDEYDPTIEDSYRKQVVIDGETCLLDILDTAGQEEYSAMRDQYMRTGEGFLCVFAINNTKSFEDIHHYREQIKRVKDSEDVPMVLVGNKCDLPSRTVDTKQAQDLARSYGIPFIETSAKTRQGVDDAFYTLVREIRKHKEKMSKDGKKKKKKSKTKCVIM

Consider `Cc1cn(C(=O)N2CC(CN(C)c3nc(OC[C@@]45CCCN4C[C@H](F)C5)nc4c(F)c(-c5ccc(F)c6sc(N)c(C#N)c56)c(Cl)cc34)(C(F)F)C2)cn1` [Compound 156, 2-amino-4-(6-chloro-4-(((3-(difluoromethyl)-1-(4-methyl-1H-imidazole-1-carbonyl)azetidin-3-yl)methyl)(methyl)amino)-8-fluoro-2-(((2R,7aS)-2-fluorotetrahydro-1H-pyrrolizin-7a(5H)-yl)methoxy)quinazolin-7-yl)-7-fluorobenzo[b]thiophene-3-carbonitrile], for which the IC50 was less than 500 nM at KRAS G12D; no more than 500 nM in the experiment with MiaPaca2 cells; less than 500 nM on KRAS G12V; less than 500 nM at KRAS G12S; less than 500 nM on KRAS WT.

For the compound `Cc1nc(C#N)cn1C(=O)N1CC[C@@H](N(C)c2nc(OC[C@@]34CCCN3C[C@H](F)C4)nc3c(F)c(-c4ccc(F)c5sc(N)c(C#N)c45)c(Cl)cc23)[C@H]1C` [Compound 158, 1-((2R,3R)-3-((7-(2-amino-3-cyano-7-fluorobenzo[b]thiophen-4-yl)-6-chloro-8-fluoro-2-(((2R,7aS)-2-fluorotetrahydro-1H-pyrrolizin-7a(5H)-yl)methoxy)quinazolin-4-yl)(methyl)amino)-2-methylpyrrolidine-1-carbonyl)-2-methyl-1H-imidazole-4-carbonitrile], the IC50 on KRAS G12D is less than 500 nM; with MiaPaca2 cells, no more than 500 nM; on KRAS G12V it was less than 500 nM; at KRAS G12S it was less than 500 nM; on KRAS WT, less than 500 nM.

As for `CCN(c1nc(OC[C@@]23CCCN2C[C@H](F)C3)nc2c(F)c(-c3ccc(F)c4sc(N)c(C#N)c34)c(C(F)(F)F)cc12)[C@@H]1CCN(C(=O)n2cc(C#N)nc2C)[C@@H]1C` [Compound 159, 1-((2R,3R)-3-((7-(2-amino-3-cyano-7-fluorobenzo[b]thiophen-4-yl)-8-fluoro-2-(((2R,7aS)-2-fluorotetrahydro-1H-pyrrolizin-7a(5H)-yl)methoxy)-6-(trifluoromethyl)quinazolin-4-yl)(ethyl)amino)-2-methylpyrrolidine-1-carbonyl)-2-methyl-1H-imidazole-4-carbonitrile], the IC50 on KRAS G12D is less than 500 nM; in the experiment on MiaPaca2 cells it was no more than 500 nM; at KRAS G12V, less than 500 nM; at KRAS G12S, less than 500 nM; at KRAS WT, less than 500 nM.

For `CC1C(N(C)c2nc(OC[C@@]34CCCN3C[C@H](F)C4)nc3c(F)c(-c4ccc(F)c5sc(N)c(C#N)c45)c(Cl)cc23)CCN1C(=O)n1cnc(F)n1` (stereo partly drawn) [Compound 160, 2-amino-4-(6-chloro-8-fluoro-4-((1-(3-fluoro-1H-1,2,4-triazole-1-carbonyl)-2-methylpyrrolidin-3-yl)(methyl)amino)-2-(((2R,7aS)-2-fluorotetrahydro-1H-pyrrolizin-7a(5H)-yl)methoxy)quinazolin-7-yl)-7-fluorobenzo[b]thiophene-3-carbonitrile], the IC50 at KRAS G12D was less than 500 nM; in the experiment with MiaPaca2 cells it was no more than 500 nM; on KRAS G12V it was less than 500 nM; on KRAS G12S it was less than 500 nM; at KRAS WT, less than 500 nM.

On to `Cc1c(C#N)ncn1C(=O)N1C[C@]2(CCCCN(c3nc(OC[C@@]45CCCN4C[C@H](F)C5)nc4c(F)c(-c5ccc(F)c6sc(N)c(C#N)c56)c(Cl)cc34)C2)[C@H]1C` [Compound 161, 1-((1R,4R)-6-(7-(2-amino-3-cyano-7-fluorobenzo[b]thiophen-4-yl)-6-chloro-8-fluoro-2-(((2R,7aS)-2-fluorotetrahydro-1H-pyrrolizin-7a(5H)-yl)methoxy)quinazolin-4-yl)-1-methyl-2,6-diazaspiro[3.6]decane-2-carbonyl)-5-methyl-1H-imidazole-4-carbonitrile], for which the IC50 is less than 500 nM on KRAS G12D; no more than 500 nM with MiaPaca2 cells; less than 500 nM at KRAS G12V; less than 500 nM at KRAS G12S; less than 500 nM on KRAS WT.

On to `CCN(c1nc(OC[C@@]23CCCN2C[C@H](F)C3)nc2c(F)c(-c3ccc(F)c4sc(N)c(C#N)c34)c(C(F)(F)F)cc12)[C@@H]1CCN(C(=O)n2cc(C)nc2Cl)[C@@H]1C` [Compound 162, 2-amino-4-(4-(((2R,3R)-1-(2-chloro-4-methyl-1H-imidazole-1-carbonyl)-2-methylpyrrolidin-3-yl)(ethyl)amino)-8-fluoro-2-(((2R,7aS)-2-fluorotetrahydro-1H-pyrrolizin-7a(5H)-yl)methoxy)-6-(trifluoromethyl)quinazolin-7-yl)-7-fluorobenzo[b]thiophene-3-carbonitrile], for which the IC50 at KRAS G12D was less than 500 nM; in the experiment on MiaPaca2 cells, no more than 500 nM; at KRAS G12V, less than 500 nM; at KRAS G12S it was less than 500 nM; on KRAS WT, less than 500 nM.

As for `CCN(c1nc(OC[C@@]23CCCN2C[C@H](F)C3)nc2c(F)c(-c3ccc(F)c4sc(N)c(C#N)c34)c(Cl)cc12)[C@@H]1CCN(C(=O)n2ccnc2C)[C@@H]1C` [Compound 163, 2-amino-4-(6-chloro-4-(ethyl((2R,3R)-2-methyl-1-(2-methyl-1H-imidazole-1-carbonyl)pyrrolidin-3-yl)amino)-8-fluoro-2-(((2R,7aS)-2-fluorotetrahydro-1H-pyrrolizin-7a(5H)-yl)methoxy)quinazolin-7-yl)-7-fluorobenzo[b]thiophene-3-carbonitrile], the half-inhibitory concentration (IC50) is less than 500 nM on KRAS G12D; no more than 500 nM in the experiment on MiaPaca2 cells; less than 500 nM on KRAS G12V; less than 500 nM at KRAS G12S; less than 500 nM at KRAS WT.

As for `Cc1cn(C(=O)N2CC3(CCCCN(c4nc(OC[C@@]56CCCN5C[C@H](F)C6)nc5c(F)c(-c6ccc(F)c7sc(N)c(C#N)c67)c(Cl)cc45)C3)C2)cn1` [Compound 164, 2-amino-4-(6-chloro-8-fluoro-2-(((2R,7aS)-2-fluorotetrahydro-1H-pyrrolizin-7a(5H)-yl)methoxy)-4-(2-(4-methyl-1H-imidazole-1-carbonyl)-2,6-diazaspiro[3.6]decan-6-yl)quinazolin-7-yl)-7-fluorobenzo[b]thiophene-3-carbonitrile], the IC50 is less than 500 nM on KRAS G12D; no more than 500 nM in the experiment with MiaPaca2 cells; less than 500 nM at KRAS G12V; less than 500 nM at KRAS G12S; less than 500 nM at KRAS WT.

Regarding `Cc1nc(C#N)cn1C(=O)N1C[C@]2(CCCCN(c3nc(OC[C@@]45CCCN4C[C@H](F)C5)nc4c(F)c(-c5ccc(F)c6sc(N)c(C#N)c56)c(Cl)cc34)C2)[C@H]1C` [Compound 165, 1-((1R,4R)-6-(7-(2-amino-3-cyano-7-fluorobenzo[b]thiophen-4-yl)-6-chloro-8-fluoro-2-(((2R,7aS)-2-fluorotetrahydro-1H-pyrrolizin-7a(5H)-yl)methoxy)quinazolin-4-yl)-1-methyl-2,6-diazaspiro[3.6]decane-2-carbonyl)-2-methyl-1H-imidazole-4-carbonitrile], the IC50 at KRAS G12D is less than 500 nM; in the experiment on MiaPaca2 cells, no more than 500 nM; at KRAS G12V, less than 500 nM; at KRAS G12S it was less than 500 nM; on KRAS WT it was less than 500 nM.

For the compound `CC[C@@H]1[C@H](N(CC)c2nc(OC[C@@]34CCCN3C[C@H](F)C4)nc3c(F)c(-c4ccc(F)c5sc(N)c(C#N)c45)c(Cl)cc23)CCN1C(=O)n1cnc(F)n1` [Compound 168, 2-amino-4-(6-chloro-4-(ethyl((2R,3R)-2-ethyl-1-(3-fluoro-1H-1,2,4-triazole-1-carbonyl)pyrrolidin-3-yl)amino)-8-fluoro-2-(((2R,7aS)-2-fluorotetrahydro-1H-pyrrolizin-7a(5H)-yl)methoxy)quinazolin-7-yl)-7-fluorobenzo[b]thiophene-3-carbonitrile], the IC50 at KRAS G12D was less than 500 nM; with MiaPaca2 cells, no more than 500 nM; at KRAS G12V it was less than 500 nM; on KRAS G12S, less than 500 nM; on KRAS WT, less than 500 nM.

For `CC(C)[C@@H]1[C@H](N(C)c2nc(OC[C@@]34CCCN3C[C@H](F)C4)nc3c(F)c(-c4ccc(F)c5sc(N)c(C#N)c45)c(Cl)cc23)CCN1C(=O)n1ccnc1` [Compound 169, 4-(4-(((2R,3R)-1-(1H-imidazole-1-carbonyl)-2-isopropylpyrrolidin-3-yl)(methyl)amino)-6-chloro-8-fluoro-2-(((2R,7aS)-2-fluorotetrahydro-1H-pyrrolizin-7a(5H)-yl)methoxy)quinazolin-7-yl)-2-amino-7-fluorobenzo[b]thiophene-3-carbonitrile], the IC50 is less than 500 nM at KRAS G12D; no more than 500 nM in the experiment on MiaPaca2 cells; less than 500 nM on KRAS G12V; less than 500 nM on KRAS G12S; less than 500 nM on KRAS WT.

Take `CCN(c1nc(OC[C@@]23CCCN2C[C@H](F)C3)nc2c(F)c(-c3ccc(F)c4sc(N)c(C#N)c34)c(Cl)cc12)[C@@H]1CCN(C(=O)n2cnc(OC)c2)[C@@H]1C` [Compound 170, 2-amino-4-(6-chloro-4-(ethyl((2R,3R)-1-(4-methoxy-1H-imidazole-1-carbonyl)-2-methylpyrrolidin-3-yl)amino)-8-fluoro-2-(((2R,7aS)-2-fluorotetrahydro-1H-pyrrolizin-7a(5H)-yl)methoxy)quinazolin-7-yl)-7-fluorobenzo[b]thiophene-3-carbonitrile]: the IC50 is less than 500 nM on KRAS G12D; no more than 500 nM in the experiment on MiaPaca2 cells; less than 500 nM at KRAS G12V; less than 500 nM at KRAS G12S; less than 500 nM on KRAS WT.

The values above are taken from patent publication US20260217735A1, “HETEROCYCLES AND USES THEREOF” (Kumquat Biosciences Inc., priority 2023, published 2026).
